# Patent US8865200B2, “Sustained release compositions containing progesterone receptor modulators” (Laboratoire HRA Pharma, priority 2004, dated 2014)
# Assays:
# [1] = Pharmacokinetic study of vaginal rings in women (serum levels by radioimmunoassay and LC/MS); type: in vivo
# Method: A pharmacokinetic study was conducted abroad in two clinics. Radioimmunoassay and liquid chromatography/mass spectroscopic method (LC/MS) were used to measure the serum levels of CDB-2914 and its immunoreactive metabolites. […] After insertion of the ring into the subjects, CDB-2914 was absorbed into the blood stream, increased continuously and reached a plateau at approximately 7 days post-insertion (2-3 ng/mL). Serum levels decreased upon removal of ring at Day 29 (See FIGS. 5A and 5B).
# Water solubility = type: physicochemical
# [2] = In vitro release rate from vaginal rings; type: physicochemical; conditions: for in vitro release rate: vaginal ring, 20% load W/W, redistilled water, 37 C
# Method: Thread was used to suspend the rings prepared in example 1 individually in 500 mL wide mouth polyethylene bottles with screw caps. 400 mL of redistilled water was added, and the bottles were placed in a shaking water bath at 37 C. The bath was set to make 100 one-inch strokes per minute. The bathing solution was changed every 24 hours. The CDB-2914 concentration in the aqueous medium was measured via HPLC to determine the release rate of CDB-2914.
# Using the same in vitro release rate analysis, vaginal rings were prepared containing either CDB-2914 (20% load, W/W) or mifepristone (20% load, W/W) with several different diameters of silicone tubes, and with tubes containing 18% ethylene vinyl acetate (EVA) as a rate-limiting layer. The rings were prepared by mixing CDB-2914 in a silicone elastomer matrix that was filled into a silicone tube. Upon polymerization, tube was cut into a 16 cm length and the two ends were joined with medical adhesive to form a ring. This vaginal ring has an inner layer of silicone rubber and active agent, and an outer, rate limiting layer. With a silicone tube containing 18% EVA, CDB-2914 was released at the rate of about 96 μg/ring/day, whereas the release of mifepristone was negligible. Using silicone tube C, CDB-2914 was diffused out at more than a 3-fold higher rate than mifepristone (160 μg/ring/day vs. 48 μg/ring/day).
# [3] = silicone tube containing 18% EVA as rate-limiting layer
SMILES,serum levels upon removal of ring ([1]; ring removed at Day 29),bursting release immediately after insertion of the rings ([1]; vaginal ring),serum concentration compared to Nestorone (NES) ([1]; vaginal ring),time to reach serum plateau ([1]; vaginal ring),"serum level at plateau ([1]; vaginal ring, plateau at approximately 7 days post-insertion)",water solubility (Water solubility),release rate relative to mifepristone ([2]; silicone tube C),in vitro release rate ([2]; silicone tube C),"in vitro release rate [2, 3]"
"CC(=O)O[C@]1(C(C)=O)CC[C@H]2[C@@H]3CCC4=CC(=O)CCC4=C3[C@@H](c3ccc(N(C)C)cc3)C[C@@]21C [CDB-2914, 17α-acetoxy-11β-(4-N,N-dimethylaminophenyl)-19-norpregna-4,9-diene-3,20-dione]",decreased,No bursting release,higher than that of Nestorone,approximately 7 days post-insertion,2 to 3 ng/mL,not water soluble,> 3 fold,160 μg/ring/day,about 96 μg/ring/day
"CC#C[C@]1(O)CC[C@H]2[C@@H]3CCC4=CC(=O)CCC4=C3[C@@H](c3ccc(N(C)C)cc3)C[C@@]21C [mifepristone, reference compound]",,,,,,,,48 μg/ring/day,negligible
